Laboratory results published in PMC7316778 (Nature Communications, 2020).
Where two headings read alike, the source gives them in different places.

How the values were obtained:
FES^S700C HL-60 cells = test: Morphological inspection after PMA-induced differentiation; format: cell-based, human
Protocol: One day prior to induction of differentiation, cells were diluted to 0.4 × 10^6 cells/mL. […] Neutrophil differentiation was induced by addition of all-trans-retinoic acid (1 µM) and dimethylsulfoxide (1.25%) for 72–96 h. For morphological inspection, images were taken on an EVOS FL Auto 2 Imaging System (Thermo Fisher) at ×20 magnification.
Supplementary Figure 10. Analysis of putative sgRNA off-target site. Analysis of the only predicted coding off-target of the sgRNA target sequence employed for FESS700C mutagenesis, located in the TTC16 gene. Genomic region surrounding putative off-target site was amplified by PCR, followed by Sanger sequencing analysis. No off-target gene editing events were observed.
Supplementary Figure 11. Morphological inspection of WT and FESS700C HL-60 cells after PMA-induced differentiation towards macrophages. Cells were treated with vehicle or indicated concentrations of WEL028 during PMA-induced differentiation toward macrophages. Wild-type and […]
are representative for multiple acquired images at 20x magnification from replicates (n = 3).
(also on this page, place not known: off -target off -target FES S700C PMA -induced W ild-type PAM Predicted TTC16 (NM_144965) HL-60 WT HL-60 125 μm Non-differentiated PMA (16 nM, 48 h) HL-60 WTHL-60 FESS700C Vehicle Vehicle WEL028 (100 nM) WEL028 (1 µM))

MARK2 = MARK2 (Homo sapiens, UniProt Q7KZI7); test: SelectScreen kinase assay
MARK2, sequence (Q7KZI7 whole entry): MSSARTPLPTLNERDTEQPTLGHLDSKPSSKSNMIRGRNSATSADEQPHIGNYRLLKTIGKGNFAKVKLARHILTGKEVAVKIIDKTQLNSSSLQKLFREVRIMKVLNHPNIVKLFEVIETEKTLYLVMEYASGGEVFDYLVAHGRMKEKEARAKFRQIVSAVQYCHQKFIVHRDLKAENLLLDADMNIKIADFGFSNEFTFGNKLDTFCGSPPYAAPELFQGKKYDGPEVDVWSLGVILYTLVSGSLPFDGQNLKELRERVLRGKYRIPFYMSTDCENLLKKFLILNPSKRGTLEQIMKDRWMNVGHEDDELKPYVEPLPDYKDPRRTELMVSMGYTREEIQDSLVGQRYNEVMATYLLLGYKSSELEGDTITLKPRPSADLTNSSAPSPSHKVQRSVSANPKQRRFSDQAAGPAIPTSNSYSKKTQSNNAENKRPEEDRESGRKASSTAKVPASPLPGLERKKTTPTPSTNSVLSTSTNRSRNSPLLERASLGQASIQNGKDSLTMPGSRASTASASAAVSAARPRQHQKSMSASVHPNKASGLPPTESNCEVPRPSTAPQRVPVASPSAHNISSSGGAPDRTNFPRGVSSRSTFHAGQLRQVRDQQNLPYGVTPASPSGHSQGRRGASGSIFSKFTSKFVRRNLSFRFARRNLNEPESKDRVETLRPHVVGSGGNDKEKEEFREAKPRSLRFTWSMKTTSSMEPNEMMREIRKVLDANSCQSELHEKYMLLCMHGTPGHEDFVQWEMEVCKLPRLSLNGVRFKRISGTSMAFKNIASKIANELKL
Protocol: (§1) Selectivity profiling assays were performed by the Invitrogen SelectScreen™ Services. […] The concentration of ATP was selected to be equal to the KM, unless indicated otherwise.

MUSK = target: T1, MUSK (Homo sapiens, UniProt O15146); test: SelectScreen kinase assay
T1 sequence (O15146 24-869): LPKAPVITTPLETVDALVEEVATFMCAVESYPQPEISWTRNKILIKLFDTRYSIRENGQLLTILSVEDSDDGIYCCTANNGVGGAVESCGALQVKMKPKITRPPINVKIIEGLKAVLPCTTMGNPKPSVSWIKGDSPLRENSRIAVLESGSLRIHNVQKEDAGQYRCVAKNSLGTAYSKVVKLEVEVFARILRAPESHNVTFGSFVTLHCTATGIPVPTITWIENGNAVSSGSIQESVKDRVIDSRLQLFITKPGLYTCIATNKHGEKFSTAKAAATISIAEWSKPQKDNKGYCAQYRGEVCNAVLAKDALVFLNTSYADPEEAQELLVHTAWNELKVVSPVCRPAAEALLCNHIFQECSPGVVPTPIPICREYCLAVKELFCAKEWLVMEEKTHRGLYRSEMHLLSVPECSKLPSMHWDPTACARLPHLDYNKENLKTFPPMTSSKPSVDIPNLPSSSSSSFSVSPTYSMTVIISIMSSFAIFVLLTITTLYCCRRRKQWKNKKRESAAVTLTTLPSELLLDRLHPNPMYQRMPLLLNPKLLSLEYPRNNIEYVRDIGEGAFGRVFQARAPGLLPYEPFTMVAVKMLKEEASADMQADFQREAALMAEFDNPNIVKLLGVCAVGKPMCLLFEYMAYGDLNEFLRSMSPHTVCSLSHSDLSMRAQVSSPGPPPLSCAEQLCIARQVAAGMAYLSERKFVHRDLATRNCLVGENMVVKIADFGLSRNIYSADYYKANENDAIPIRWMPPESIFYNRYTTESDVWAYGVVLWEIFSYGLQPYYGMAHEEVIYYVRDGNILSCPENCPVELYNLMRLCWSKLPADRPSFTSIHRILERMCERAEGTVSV
Protocol: as §1

MYLK (MLCK) = MYLK (MLCK) (Homo sapiens, UniProt Q15746); test: SelectScreen kinase assay
MYLK (MLCK), sequence (Q15746 whole entry): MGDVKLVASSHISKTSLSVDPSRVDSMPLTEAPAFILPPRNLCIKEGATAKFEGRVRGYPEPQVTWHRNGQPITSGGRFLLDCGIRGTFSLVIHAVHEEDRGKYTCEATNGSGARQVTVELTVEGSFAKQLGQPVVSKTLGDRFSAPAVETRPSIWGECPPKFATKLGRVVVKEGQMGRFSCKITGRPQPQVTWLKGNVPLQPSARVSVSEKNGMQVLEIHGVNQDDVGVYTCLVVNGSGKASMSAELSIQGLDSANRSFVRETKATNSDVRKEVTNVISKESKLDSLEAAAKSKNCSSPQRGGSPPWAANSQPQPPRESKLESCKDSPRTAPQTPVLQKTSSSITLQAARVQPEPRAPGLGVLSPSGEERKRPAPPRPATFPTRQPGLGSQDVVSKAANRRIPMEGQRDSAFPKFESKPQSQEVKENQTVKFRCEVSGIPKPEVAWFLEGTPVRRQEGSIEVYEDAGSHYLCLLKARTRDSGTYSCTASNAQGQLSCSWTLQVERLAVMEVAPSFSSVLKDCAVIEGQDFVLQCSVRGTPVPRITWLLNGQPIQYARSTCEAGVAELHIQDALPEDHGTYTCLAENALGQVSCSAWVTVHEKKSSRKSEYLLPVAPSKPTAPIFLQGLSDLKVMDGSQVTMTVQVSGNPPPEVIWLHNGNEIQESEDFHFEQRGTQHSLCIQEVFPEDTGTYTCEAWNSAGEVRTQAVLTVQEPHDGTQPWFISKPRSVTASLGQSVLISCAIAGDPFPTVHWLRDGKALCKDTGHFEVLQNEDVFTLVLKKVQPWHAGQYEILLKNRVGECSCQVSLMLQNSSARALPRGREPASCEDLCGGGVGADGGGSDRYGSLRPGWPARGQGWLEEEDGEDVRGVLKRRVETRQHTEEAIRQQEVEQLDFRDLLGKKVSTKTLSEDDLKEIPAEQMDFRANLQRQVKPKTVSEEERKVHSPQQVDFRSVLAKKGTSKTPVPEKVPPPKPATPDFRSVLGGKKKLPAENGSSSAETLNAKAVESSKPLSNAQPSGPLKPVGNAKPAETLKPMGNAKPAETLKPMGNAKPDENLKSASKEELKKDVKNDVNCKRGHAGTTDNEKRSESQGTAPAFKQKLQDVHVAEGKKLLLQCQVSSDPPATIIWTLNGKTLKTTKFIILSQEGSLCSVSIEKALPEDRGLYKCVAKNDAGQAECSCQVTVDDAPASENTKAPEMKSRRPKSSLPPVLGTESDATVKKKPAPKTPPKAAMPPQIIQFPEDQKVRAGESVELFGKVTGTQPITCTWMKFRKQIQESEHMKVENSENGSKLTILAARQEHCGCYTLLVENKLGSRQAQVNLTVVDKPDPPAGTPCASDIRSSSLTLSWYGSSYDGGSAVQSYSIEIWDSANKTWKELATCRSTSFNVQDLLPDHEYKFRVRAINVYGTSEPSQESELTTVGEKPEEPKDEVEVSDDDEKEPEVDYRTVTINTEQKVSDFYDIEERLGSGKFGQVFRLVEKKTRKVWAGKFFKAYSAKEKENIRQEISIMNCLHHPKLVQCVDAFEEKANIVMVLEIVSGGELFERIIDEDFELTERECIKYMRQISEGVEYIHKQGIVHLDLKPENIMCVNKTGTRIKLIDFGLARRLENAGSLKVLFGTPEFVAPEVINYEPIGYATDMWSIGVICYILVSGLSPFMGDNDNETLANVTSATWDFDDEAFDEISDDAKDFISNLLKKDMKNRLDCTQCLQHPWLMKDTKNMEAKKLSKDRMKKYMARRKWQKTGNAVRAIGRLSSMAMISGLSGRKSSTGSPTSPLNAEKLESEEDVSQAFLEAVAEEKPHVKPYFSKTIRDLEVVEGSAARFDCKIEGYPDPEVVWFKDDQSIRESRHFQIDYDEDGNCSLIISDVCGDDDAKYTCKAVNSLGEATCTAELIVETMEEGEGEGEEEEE
Protocol: as §1

PAK2 (PAK65) = PAK2 (PAK65) (Homo sapiens, UniProt Q13177); test: SelectScreen kinase assay
PAK2 (PAK65), sequence (Q13177 whole entry): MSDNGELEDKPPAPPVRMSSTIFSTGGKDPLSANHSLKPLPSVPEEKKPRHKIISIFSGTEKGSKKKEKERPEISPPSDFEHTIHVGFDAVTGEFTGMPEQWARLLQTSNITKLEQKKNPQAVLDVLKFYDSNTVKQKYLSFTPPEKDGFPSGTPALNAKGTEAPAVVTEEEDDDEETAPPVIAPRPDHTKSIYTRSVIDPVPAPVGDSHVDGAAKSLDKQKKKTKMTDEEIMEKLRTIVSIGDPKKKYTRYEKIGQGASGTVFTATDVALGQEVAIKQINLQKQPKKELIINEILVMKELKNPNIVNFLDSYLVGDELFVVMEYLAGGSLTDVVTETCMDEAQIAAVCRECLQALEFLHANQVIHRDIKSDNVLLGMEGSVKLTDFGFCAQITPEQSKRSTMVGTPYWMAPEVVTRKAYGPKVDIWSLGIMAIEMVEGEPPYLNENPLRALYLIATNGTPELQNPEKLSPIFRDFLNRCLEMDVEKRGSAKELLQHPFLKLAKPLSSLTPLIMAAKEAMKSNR
Protocol: as §1

~150 kDa protein = ~150 kDa protein (Homo sapiens, UniProt O14976); test: Gel-based target engagement in HL-60 neutrophils; conditions: HL-60, read-out: Inhibition of off-target labeling
~150 kDa protein, sequence (O14976 2-1311): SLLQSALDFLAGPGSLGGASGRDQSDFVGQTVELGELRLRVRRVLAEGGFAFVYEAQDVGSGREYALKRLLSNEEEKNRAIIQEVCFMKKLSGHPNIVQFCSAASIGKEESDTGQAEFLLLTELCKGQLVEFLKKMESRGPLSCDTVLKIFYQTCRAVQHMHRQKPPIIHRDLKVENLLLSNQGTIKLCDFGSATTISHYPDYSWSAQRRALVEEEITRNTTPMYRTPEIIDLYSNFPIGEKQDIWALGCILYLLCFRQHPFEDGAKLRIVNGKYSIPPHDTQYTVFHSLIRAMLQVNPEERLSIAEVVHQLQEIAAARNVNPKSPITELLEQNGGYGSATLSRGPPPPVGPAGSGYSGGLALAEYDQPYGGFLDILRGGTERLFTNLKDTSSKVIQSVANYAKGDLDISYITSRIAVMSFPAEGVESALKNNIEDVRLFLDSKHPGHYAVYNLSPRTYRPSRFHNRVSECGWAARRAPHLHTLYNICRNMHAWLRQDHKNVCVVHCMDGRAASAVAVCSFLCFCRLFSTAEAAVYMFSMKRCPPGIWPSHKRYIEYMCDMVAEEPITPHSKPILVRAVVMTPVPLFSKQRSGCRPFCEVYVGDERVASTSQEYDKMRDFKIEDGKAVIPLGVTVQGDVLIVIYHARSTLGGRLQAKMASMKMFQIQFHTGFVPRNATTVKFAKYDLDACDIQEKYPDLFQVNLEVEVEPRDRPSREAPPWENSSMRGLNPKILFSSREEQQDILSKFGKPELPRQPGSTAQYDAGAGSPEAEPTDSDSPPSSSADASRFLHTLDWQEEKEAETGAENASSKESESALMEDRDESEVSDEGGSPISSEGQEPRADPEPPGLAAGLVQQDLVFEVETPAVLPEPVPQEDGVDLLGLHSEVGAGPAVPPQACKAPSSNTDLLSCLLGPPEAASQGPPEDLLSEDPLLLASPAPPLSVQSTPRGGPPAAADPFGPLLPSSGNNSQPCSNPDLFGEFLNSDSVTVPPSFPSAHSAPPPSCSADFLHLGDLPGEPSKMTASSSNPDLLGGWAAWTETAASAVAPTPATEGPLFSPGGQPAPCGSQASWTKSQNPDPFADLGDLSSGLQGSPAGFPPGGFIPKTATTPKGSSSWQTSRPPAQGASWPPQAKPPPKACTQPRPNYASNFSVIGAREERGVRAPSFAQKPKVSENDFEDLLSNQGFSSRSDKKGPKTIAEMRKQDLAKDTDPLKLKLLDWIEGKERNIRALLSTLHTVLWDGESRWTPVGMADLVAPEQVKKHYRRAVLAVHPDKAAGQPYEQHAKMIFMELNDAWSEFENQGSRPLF
Protocol: Data represent means ± SEM.
The term in situ is used to designate experiments in which live cell cultures are treated with inhibitor, whereas the term in vitro refers to experiments in which the inhibitor is incubated with cell lysates. Compounds were diluted in growth medium from a 1000x concentrated stock solution in DMSO. […] After 48 h, cells were treated with compound for 1 h. Cells were collected by suspension in PBS and centrifuged (1000g, 5 min, rt). Pellets were flash-frozen in liquid nitrogen and stored at −80 °C until use. For in situ treatment post-differentiation, HL-60 cells were differentiated as described above and incubated with compound for 1 h unless specified otherwise. Cells were collected by suspension for non-adherent cells and trypsinization for adherent cells. After collection, cells were centrifuged (200g, 5 min, rt) and washed in equal volume of PBS (1000g, 5 min, rt). Cell pellets were flash-frozen in liquid nitrogen and stored at −80 °C until use.

[1] = 1 h, 1 μM WEL028, 1 h preincubation

## C#CCOc1ccc(Nc2ncc(Cl)c(Nc3ccccc3NC(=O)C=C)n2)c(OC)c1 [Compound 6]
FES^S700C HL-60 cells; 100 nM WEL028
  Morphology: macrophage morphology
FES^S700C HL-60 cells; 1 µM WEL028
  Morphology: morphology is similar to non-differentiated cells
MARK2; [1]
  inhibition at 1 µM: 8%
MARK2; MARK2, 1 µM, ZLYTE, ATP Km app, listed as WEL028, 1 µM
  Inhibition at 1 µM (%): 9%
MARK2; read-out: Inhibition at 1 µM (%), MARK2, 1 µM, ZLYTE, ATP Km app
  inhibition at 1 µM: 6%
MUSK; [1]
  inhibition at 1 µM: 26%
MUSK; MUSK, 1 µM, ZLYTE, ATP Km app, listed as WEL028, 1 µM
  Inhibition at 1 µM (%): 33%
MUSK; read-out: Inhibition at 1 µM (%), MUSK, 1 µM, ZLYTE, ATP Km app
  inhibition at 1 µM: 19%
MYLK (MLCK); 1 h
  inhibition at 1 µM: 15%
MYLK (MLCK); read-out: Inhibition at 1 µM (%)
  inhibition at 1 µM: 15%
PAK2 (PAK65); [1]
  inhibition at 1 µM: 29%
PAK2 (PAK65); PAK2 (PAK65), 1 µM, ZLYTE, ATP Km app, listed as WEL028, 1 µM
  Inhibition at 1 µM (%): 23%
PAK2 (PAK65); read-out: Inhibition at 1 µM (%), PAK2 (PAK65), 1 µM, ZLYTE, ATP Km app
  inhibition at 1 µM: 35%
~150 kDa protein
  inhibition at 0.1 µM: ~80%
